From PMC5402304, “Oxoaporphine Metal Complexes (Co^II, Ni^II, Zn^II) with High Antitumor Activity by Inducing Mitochondria-Mediated Apoptosis and S-phase Arrest in HepG2” (Scientific Reports, 2017)

Key:
Type in all cases: cell-based, human
[1] = test system: MGC80-3; experiment: MTT cytotoxicity assay, MGC80-3
Description: The in vitro cytotoxicity of OD, 1–3 and the corresponding metal salts were determined by MTT assay towards a panel of human tumor cells including HepG2, T-24, BEL-7404, MGC80-3, SK-OV-3/DDP and normal HL-7702 cells. As the positive control, cisplatin was dissolved at a concentration of 1 mM in 0.154 M NaCl[32].
The human tumor cell lines (BEL-7404, HepG2, MGC80–3, T-24, SK-OV-3/DDP and HeLa cells) and the human normal liver cell line HL-7702 were obtained from Shanghai Cell Bank in Chinese Academy of Sciences. Cells were cultured in Dulbecco’s modified Eagle’s medium (DMEM) or RPMI-1640 medium, which supplemented with 10% fetal bovine serum (FBS) and 100 U/mL penicillin and streptomycin. Cells were cultured at 37 °C in a humidified atmosphere with 5% CO2/95% air. Tested compounds (2.0 mM) were prepared as DMSO stock solution before they were diluted to working concentrations by PBS buffer (containing 0.5% DMSO), while cisplatin dissolved in 0.9% sodium chloride solution was used as positive controls.
Cells in their logarithmic phase were seeded in 96-well plates with 5.5 × 10^3/180 μL per well for 24 h. Then 20 μL of compounds at various concentrations were added to each well to achieve final concentrations of 1.25, 2.5, 5.0, 10.0, and 20.0 μM. All the cells were incubated with test compounds for another 48 h before MTT assay. Control wells contained media with 0.5% DMSO. After 48 h of cultivation, 10 μL of MTT (5 mg/mL in PBS) was added to each well, and cells were incubated at 37 °C for 6 h. The contents in the wells were pipetted out carefully, and the formazan crystals formed were dissolved in 100 μL of DMSO, and the absorbance was measured by enzyme labeling instrument with 490 nm/630 nm double wavelength measurement. The IC50 value was defined as a drug concentration killing 50% cells in comparison with untreated controls, which was calculated by the Bliss method (n = 5). All tests were repeated in at least three independent trials.

[2] = test system: HepG2 cells; experiment: Comet assay for DNA damage; design: unit not given here; conditions: HepG2, 1.0 μM, 24 h
Description: After the observation of significant S-phase arrest caused by 1–3, the study of DNA damage assay is necessary. The single cell gel electrophoresis technique (comet assay) is a simple, sensitive, reliable, and rapid method to detect DNA damage in eukaryotic cell[39]. As shown in Table 3 and Fig. 6, 1–3 at 1.0 μM induced DNA damage (fragmentation or unwinding) appeared as fluorescent comets with remarkable increase of tails size, especially for 3.
The comet assay is a simple method for measuring DNA strand breaks in cells. The comet assay reagent kit was purchased from Trevigen, and the experiment was carried out according to the manufacturer’s instructions. After treatment with OD and 1–3 at 1.0 μM, HepG2 cells were harvested and suspended at 1 × 10^6 Hep-G2 cells/mL in PBS. The cells suspension was mixed with melted LM agarose at a ratio of 1:10 (v/v). An aliquot (75 μL) of the mixture was immediately pipetted onto the slide (Comet Slide TM). After refrigeration for 30 min, the slide was immersed in pre-chilled lysis solution and left on ice for 60 min, followed by immersing in freshly prepared alkaline solution (300 mM NaOH, 1 mM EDTA, pH > 13) for 60 min on ice in darkness. After DNA unwinding, the slide was subjected to alkaline solution for electrophoresis in a Savant ps 250 system set at 300 mA and 1 volt/cm for 30 min. After electrophoresis, the slide was rinsed with distilled H2O, fixed in 70% ethanol for 5 min and air-dried overnight. DNA was stained with SYBR Green I (Trevigen) and visualized under a fluorescence microscope (Nikon, Eclipse E600).

[3] = test system: caspase-9; experiment: Caspase-9 activation by flow cytometry (CaspGLOW); conditions: HepG2, 1.0 μM, 24 h; control 1.9%
Description: Caspase family is closely related to the cell apoptosis via the mitochondrial pathway, especially caspases-3, -8 and -9. To better understand the antitumor mechanisms, it needs to confirm whether caspase-3, -8 and -9 are activated when the tumor cells are treated with 1–3.
The measurement of caspase-3, -8 and -9’s activities was performed by CaspGLOW fluorescein active caspase-3, -8 and -9 staining kit. HepG2 cells were treated with 1 μM 1–3 for 24 h, harvested at a density of 1 × 10^6 cells/mL, and then suspended in 300 μL volume with PBS. To the suspension, 1 μL of caspase-3 inhibitor (FITC-DEVD-FMK), caspase-8 inhibitor (FITC-IETD-FMK) or caspase-9 inhibitor (FITC-LEHD-FMK) was consequently added and incubated for 1 h at 37 °C in 5% CO2 incubator. The cells were then examined by a FACSAria II flow cytometer equipped with a 488 nm argon laser. The results were represented as the percent change on the activity compared with the control.

With [Zn(OD)2(H2O)2] (ClO4)2 [Complex 3] the inhibitive ratio ([1]; MGC80-3, 20 μmol/L, 48 h) was 67.30±0.21%, the IC50 ([1]; MGC80-3, 48 h, MTT) was 4.31 ± 0.31 µM and the Comet length [2] was 119.12 ± 6.59. It also gave an Olive tail moment [2] of 22.67 ± 3.76, a Tail length [2] of 58.67 ± 9.14 and a Tail moment [2] of 30.46 ± 6.98. For the same substance, the “proportion of activated caspase-9” value [3] was 32.6%.
